The molecules below were run on Human valve interstitial cells (VIC) (assay: Calcification inhibition in human valve interstitial cells (VIC); staining followed by spectroscopy). Details: VIC isolated from human aortic valves; calcification induced; test substance contacted during or after induced calcification; degree of calcification by staining and spectroscopy (FIG. 2, FIG. 3).
Assay type: cell-based
Protocol: Human valve interstitial cells (VIC) are isolated from human aortic valves harvested during surgery for use in calcification inhibitor testing. After isolation, calcification is induced in the cells. The activity of potential inhibitors is assayed by contacting the VIC cells with the test substance during or after the induced calcification. The degree of calcification is measured by staining followed by spectroscopy. FIG. 1 provides photomicrographs of control cells (no induced calcification, left panel), cells where calcification is induced (middle panel), and calcification in the presence of an inhibitor (right panel).

`COCCCOc1ccnc(C[S+]([O-])c2nc3ccccc3[nH]2)c1C` (stereo not shown) [Rabeprazole, rabeprazole] was tested. Which inhibition of calcification did it give?
The inhibition of calcification was “inhibition of calcification”.

`Cc1c(OCC(F)(F)F)ccnc1C[S+]([O-])c1nc2ccccc2[nH]1` (stereo not shown) [lansoprazole] was tested. Which inhibition of calcification did it give?
Its inhibition of calcification is “inhibition of calcification”.

Which inhibition of calcification does the source give for `COc1ccc2[nH]c([S+]([O-])Cc3ncc(C)c(OC)c3C)nc2c1` (stereo not shown) [omeprazole] here?
Its inhibition of calcification is “inhibition of calcification”.

How did the inhibition of calcification turn out when `COc1ccnc(C[S+]([O-])c2nc3cc(OC(F)F)ccc3[nH]2)c1OC` (stereo not shown) [pantoprazole] was run?
The inhibition of calcification was “inhibition of calcification”.

Reference: patent US20260097026A1, “INHIBITION OF AORTIC VALVE CALCIFICATION” (priority 2022, published 2026)
